From patent US7491794B2, “Macrocyclic compounds as inhibitors of viral replication” (Intermune, Inc., priority 2003, dated 2009)

Key:
[1] = Toxicological assessment in rats, up to 30 mg/kg orally BID for seven days; details: Rattus sp.
[2] = Rat hepatocyte incubation assay (stability in vitro); assay type: in vitro ADME; details: rat hepatocytes
[3] = Dog hepatocyte incubation assay (stability in vitro); assay type: in vitro ADME; details: dog hepatocytes
Cytochrome P450 isoforms = assay: Inhibition of Cytochrome P450 isoforms; assay type: in vitro ADME; details: highest concentrations tested (10 μM)
[4] = Human hepatocyte incubation assay (stability in vitro); assay type: in vitro ADME; details: human hepatocytes
[5] = test system: HCV sub-genomic replicon, GS4.3; assay: Quantitation by ELISA of NPTII in the HCV sub-genomic replicon, GS4.3, Section B; assay type: cell-based; details: Hepatitis C virus; read-out: replicon EC50 value
In short: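 GS4.3 cells (HuH-7 carrying HCV 1377/NS3-3′ replicon) were treated 72 h at 37 °C with inhibitors in 3-fold dilutions, 1% DMSO, no G418. Lysate NPTII was measured by ELISA (TMB, 450 nm). Signal as % of DMSO control; EC50 from 4-parameter fit.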

[6] = test system: panel of other serine proteases; assay: Selectivity against a panel of other serine proteases; assay type: biochemical
hERG channel = hERG channel (Homo sapiens, UniProt Q12809); assay: Inhibition of hERG channel activity; details: highest concentrations tested (10 μM)
Chain of hERG channel (Q12809 whole entry): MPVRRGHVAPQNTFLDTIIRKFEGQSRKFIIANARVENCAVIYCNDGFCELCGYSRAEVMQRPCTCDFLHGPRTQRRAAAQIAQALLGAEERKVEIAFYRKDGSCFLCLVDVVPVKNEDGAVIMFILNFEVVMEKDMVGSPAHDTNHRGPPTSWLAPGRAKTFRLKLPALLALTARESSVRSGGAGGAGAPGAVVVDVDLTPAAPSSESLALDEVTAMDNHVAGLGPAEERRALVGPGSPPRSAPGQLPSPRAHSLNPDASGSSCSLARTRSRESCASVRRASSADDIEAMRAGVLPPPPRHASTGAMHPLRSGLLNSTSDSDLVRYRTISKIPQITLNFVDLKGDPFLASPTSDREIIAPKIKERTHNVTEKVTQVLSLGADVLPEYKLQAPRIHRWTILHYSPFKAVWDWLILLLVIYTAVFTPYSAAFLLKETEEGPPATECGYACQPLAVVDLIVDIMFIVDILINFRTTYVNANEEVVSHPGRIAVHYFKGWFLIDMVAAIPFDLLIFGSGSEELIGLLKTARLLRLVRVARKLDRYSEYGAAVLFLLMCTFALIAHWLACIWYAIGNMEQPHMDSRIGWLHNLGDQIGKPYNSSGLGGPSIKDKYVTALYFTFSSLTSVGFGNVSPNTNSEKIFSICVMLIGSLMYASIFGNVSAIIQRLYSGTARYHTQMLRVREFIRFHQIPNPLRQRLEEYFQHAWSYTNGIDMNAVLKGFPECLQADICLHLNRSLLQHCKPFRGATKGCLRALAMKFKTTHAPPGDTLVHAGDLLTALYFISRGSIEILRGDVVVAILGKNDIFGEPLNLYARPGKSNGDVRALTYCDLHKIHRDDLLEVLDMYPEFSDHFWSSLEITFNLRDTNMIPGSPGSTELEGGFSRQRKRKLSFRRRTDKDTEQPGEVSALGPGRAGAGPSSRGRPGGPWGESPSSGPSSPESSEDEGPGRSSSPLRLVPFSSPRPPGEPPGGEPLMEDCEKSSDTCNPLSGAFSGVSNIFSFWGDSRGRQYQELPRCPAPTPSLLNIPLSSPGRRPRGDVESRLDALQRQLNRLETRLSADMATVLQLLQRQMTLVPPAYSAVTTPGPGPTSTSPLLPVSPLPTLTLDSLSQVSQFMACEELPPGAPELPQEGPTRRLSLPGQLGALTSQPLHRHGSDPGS

[7] = in vivo, po
Method: Compounds were initially synthesized and tested for potency (IC50) in a fluorogenic NS3/4 protease assay and cell-based HCV replicon system as described in Example 8 above. […] These leads were then further optimized for drug-like physical properties and administered in oral doses in Rattus sp. to assess liver, heart and plasma concentrations.
Compounds were tested for liver clearance over time following a single 3 mg/kg oral dose in rats.
Compounds were initially synthesized and tested for potency (IC50) in a fluorogenic NS3/4 protease assay and cell-based HCV replicon system as described above. […] These leads were then further optimized for drug-like physical properties and administered in oral doses in Rattus sp. to assess liver, heart and plasma concentrations.

NS3-NS4 protease = biological target: T1, NS3-NS4 protease (Hepatitis C virus genotype 1a, UniProt P27958); assay: NS3-NS4 protease assay / NS3 inhibition assay, Section C; assay type: biochemical; details: read-out: NS3-NS4 IC50
T1 construct: Recombinant E. coli or Baculovirus full-length NS3 was diluted to 3.33 μM with assay buffer; made in house; host or cells: E. coli or baculovirus (BV) system
T1 sequence (P27958 1027-1657): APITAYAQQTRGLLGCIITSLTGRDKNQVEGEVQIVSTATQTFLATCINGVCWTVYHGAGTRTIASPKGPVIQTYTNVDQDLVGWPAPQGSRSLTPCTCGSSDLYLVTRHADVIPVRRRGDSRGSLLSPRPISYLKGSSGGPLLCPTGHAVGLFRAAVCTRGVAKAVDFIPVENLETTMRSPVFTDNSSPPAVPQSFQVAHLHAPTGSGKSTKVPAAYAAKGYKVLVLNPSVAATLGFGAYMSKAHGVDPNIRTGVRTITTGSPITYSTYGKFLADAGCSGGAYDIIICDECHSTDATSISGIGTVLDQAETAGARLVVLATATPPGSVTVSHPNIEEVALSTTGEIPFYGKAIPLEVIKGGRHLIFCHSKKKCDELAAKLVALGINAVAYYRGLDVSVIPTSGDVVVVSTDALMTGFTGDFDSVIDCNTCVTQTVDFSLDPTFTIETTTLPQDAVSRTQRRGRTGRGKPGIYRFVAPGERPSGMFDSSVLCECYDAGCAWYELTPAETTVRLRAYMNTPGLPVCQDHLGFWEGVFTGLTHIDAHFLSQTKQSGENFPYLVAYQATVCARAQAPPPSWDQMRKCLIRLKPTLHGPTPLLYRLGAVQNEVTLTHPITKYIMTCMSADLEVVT
In short: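 Full-length NS3 (E. coli, 2 nM, or Baculovirus, 3 nM, in assay) precomplexed with excess NS4A-2 peptide, pre-incubated with compound 10 minutes at room temperature, then RETS1 substrate added. Fluorescence (ex 335/em 495 nm) read kinetically over 30 minutes; IC50s from four-parameter fit converted to Ki via Ki=IC50/(1+[S]/Km).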

[8] = test system: HCV sub-genomic replicon, GS4.3; assay: Quantitation by ELISA of NPTII in the HCV sub-genomic replicon, GS4.3, Section C; assay type: cell-based; details: GS4.3 cells, 72 h incubation, read-out: EC50
[9] = from C=CCCCCC[C@H](NC(=O)OC(C)(C)C)C(=O)N1C[C@H](O)C[C@H]1C(=O)N[C@]1(C(=O)OCC)C[C@H]1C=C; rcm bond; Hoveyda catalyst; DCE; 10.0 mM; 50.0 °C; 16.0 h
[10] = from 1R-{[1-(2S-tert-Butoxycarbonylamino-non-8-enoyl)-4R-hydroxy-pyrrolidine-2S-carbonyl]-amino}-2S-vinyl-cyclopropanecarboxylic acid ethyl ester; rcm bond; 15-membered ring; Hoveyda catalyst (0.25 equiv); DCE; 10.0 mM; 50.0 °C

SMILES	stability in vitro in rat hepatocyte incubation assay [2]	stability in vitro in dog hepatocyte incubation assay [3]	inhibition of Cytochrome P450 isoforms (Cytochrome P450 isoforms)	stability in vitro in human hepatocyte incubation assay [4]	EC50 [5]	selectivity against a panel of other serine proteases [6]	inhibition of hERG channel activity (hERG channel)	IC50 (NS3-NS4 protease)	also measured
CC(C)(C)OC(=O)N[C@H]1CCCCC/C=C\[C@@H]2C[C@@]2(C(=O)NS(=O)(=O)C2CC2)NC(=O)[C@@H]2C[C@@H](OC(=O)N3Cc4cccc(F)c4C3)CN2C1=O [AR334191]	exhibited stability	exhibited stability	no significant inhibition	exhibited stability	~2 nM	high degree of selectivity	no significant inhibition		safety margin above the presumptive efficacious dose (3 mg/kg) ([1]; 30 mg/kg BID for seven days vs 3 mg/kg): ≥ 10 fold; mortality, change in weight, abnormalities in clinical chemistries ([1]; 30 mg/kg orally BID for 7 days): no mortality, change in weight, or abnormalities in clinical chemistries were observed; toxicity ([1]; dosed for seven days at 30 mg/kg BID): did not display toxicity; heart levels relative to liver concentrations in the same animals [7]: up to two orders of magnitude lower; plasma levels relative to liver concentrations in the same animals [7]: up to two orders of magnitude lower
CC(C)(C)OC(=O)N[C@H]1CCCCCCC[C@@H]2C[C@@]2(C(=O)NS(=O)(=O)C2CC2)NC(=O)[C@@H]2C[C@@H](OC(=O)N3Cc4ccccc4C3)CN2C1=O [AR333833]	exhibited stability	exhibited stability	no significant inhibition	exhibited stability	~2 nM	high degree of selectivity	no significant inhibition		
CC(C)(C)OC(=O)N[C@H]1CCCCC/C=C\[C@@H]2C[C@@]2(C(=O)NS(=O)(=O)C2CC2)NC(=O)[C@@H]2C[C@@H](OC(=O)N3Cc4ccccc4C3)CN2C1=O [AR294381]	exhibited stability	exhibited stability	no significant inhibition	exhibited stability	~2 nM	high degree of selectivity	no significant inhibition		
CC(C)(C)OC(=O)N[C@H]1CCCCC/C=C\[C@@H]2C[C@@]2(C(=O)NS(=O)(=O)Nc2ccccc2)NC(=O)[C@@H]2C[C@@H](OC(=O)N3Cc4ccccc4C3)CN2C1=O [Compound 127, (1S,4R,6S,14S,18R)-1,3-Dihydro-isoindole-2-carboxylic acid 14-tert-butoxycarbonylamino-4-(phenylaminosulfonyl-aminocarbonyl)-2,15-dioxo-3,16-diaza-tricyclo[14.3.0.0^4,6]nonadec-7-en-18-yl ester]								< 100 nM	EC50 ([8]; Hepatitis C virus): < 100 nM
CN(C)S(=O)(=O)NC(=O)[C@@]12C[C@H]1C=CCCCCC[C@H](NC(=O)OC(C)(C)C)C(=O)N1C[C@H](OC(=O)N3Cc4ccccc4C3)C[C@H]1C(=O)N2 [Compound 101, (1S,4R,6S,14S,18R)-1,3-Dihydro-isoindole-2-carboxylic acid 14-tert-butoxycarbonylamino-4-(N,N-dimethylsulfonyl-aminocarbonyl)-2,15-dioxo-3,16-diaza-tricyclo[14.3.0.0^4,6]nonadec-7-en-18-yl ester]								< 100 nM	EC50 [8]: < 100 nM
CC(C)(C)OC(=O)N[C@H]1CCCCC/C=C\[C@@H]2C[C@@]2(C(=O)NS(=O)(=O)N2CCOCC2)NC(=O)[C@@H]2C[C@@H](OC(=O)N3Cc4ccccc4C3)CN2C1=O [Compound 104, (1S,4R,6S,14S,18R)-1,3-Dihydro-isoindole-2-carboxylic acid 14-tert-butoxycarbonylamino-4-(morpholinosulfonyl-aminocarbonyl)-2,15-dioxo-3,16-diaza-tricyclo[14.3.0.0^4,6]nonadec-7-en-18-yl ester]								< 100 nM	EC50 ([8]; Hepatitis C virus): < 100 nM
CC(C)(C)OC(=O)N[C@H]1CCCCC/C=C\[C@@H]2C[C@@]2(C(=O)NS(=O)(=O)C2CC2)NC(=O)[C@@H]2C[C@@H](OC(=O)N3CCc4ccccc4C3)CN2C1=O [AR261408]	exhibited stability	exhibited stability	no significant inhibition	exhibited stability	~2 nM	high degree of selectivity	no significant inhibition		
CCOC(=O)[C@@]12C[C@H]1C=CCCCCC[C@H](NC(=O)OC(C)(C)C)C(=O)N1C[C@H](O)C[C@H]1C(=O)N2									ring closure, yield of all isomers [9]: 26%; ring closure, isolated yield [10]: 52%
